# From PubChem BioAssay AID330 (DTP/NCI, 2004)
# “And” between values parts separate entries of the source, which are not always exact repeats. Equal values may be shown once. Inconclusive results and toxic doses are left out.
# Test system: P388 leukemia ip, CD2F1 mice, survival T/C
# Experiment: NCI In Vivo Anticancer Drug Screen. Data for tumor model P388 Leukemia (intraperitoneal) in CD2F1 (CDF1) mice
# Conditions: endpoint: median survival time, higher = longer survival
# How it was run: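 Mice carrying the transplanted tumor received test compound or vehicle. Survival was recorded in each group, and the value is the treated-group measurement divided by that of the vehicle-treated control group.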
# [1] = dose: 25.0 mg/kg/injection, schedule: Q04DX002 (ip), vehicle: saline with Tween-80
# [2] = dose: 50.0 mg/kg/injection, schedule: Q04DX002 (ip), vehicle: saline with Tween-80
# [3] = dose: 100.0 mg/kg/injection, schedule: Q01DX001 (ip), vehicle: Klucel (hydroxypropylcellulose) (HPC)
# [4] = dose: 200.0 mg/kg/injection, schedule: Q01DX001 (ip), vehicle: Klucel (hydroxypropylcellulose) (HPC)
# [5] = dose: 50.0 mg/kg/injection, schedule: Q01DX005 (ip), vehicle: Klucel (hydroxypropylcellulose) (HPC)
# [6] = dose: 100.0 mg/kg/injection, schedule: Q01DX005 (ip), vehicle: Klucel (hydroxypropylcellulose) (HPC)
# [7] = dose: 50.0 mg/kg/injection, schedule: Q01DX009 (ip), vehicle: Klucel (hydroxypropylcellulose) (HPC)
# [8] = dose: 60.0 mg/kg/injection, schedule: Q01DX005 (ip), vehicle: Klucel (hydroxypropylcellulose) (HPC)
# [9] = dose: 120.0 mg/kg/injection, schedule: Q01DX005 (ip), vehicle: Klucel (hydroxypropylcellulose) (HPC)
# [10] = dose: 240.0 mg/kg/injection, schedule: Q01DX005 (ip), vehicle: Klucel (hydroxypropylcellulose) (HPC)
# [11] = dose: 25.0 mg/kg/injection, schedule: Q01DX009 (ip), vehicle: saline with Tween-80
# [12] = dose: 50.0 mg/kg/injection, schedule: Q01DX009 (ip), vehicle: saline with Tween-80
# [13] = dose: 100.0 mg/kg/injection, schedule: Q01DX009 (ip), vehicle: saline with Tween-80
# [14] = dose: 60.0 mg/kg/injection, schedule: Q01DX005 (ip), vehicle: saline with Tween-80
# [15] = dose: 12.5 mg/kg/injection, schedule: Q01DX009 (ip), vehicle: Klucel (hydroxypropylcellulose) (HPC)
# [16] = dose: 25.0 mg/kg/injection, schedule: Q01DX009 (ip), vehicle: Klucel (hydroxypropylcellulose) (HPC)
# [17] = dose: 400.0 mg/kg/injection, schedule: Q01DX001 (ip), vehicle: Klucel (hydroxypropylcellulose) (HPC)
structure (smiles),measurement,setting,value
Nc1cc(N)n(C2=NCCN2)n1,T/C,"dose: 60.0 mg/kg/injection, schedule: Q01DX005 (ip), vehicle: saline",104 % of control
same,T/C,"dose: 120.0 mg/kg/injection, schedule: Q01DX005 (ip), vehicle: saline",104 % of control
same,T/C,"dose: 240.0 mg/kg/injection, schedule: Q01DX005 (ip), vehicle: saline",98 % of control
CCNCC(=O)Nc1ccc2c(c1)C(=O)c1ccc(NC(=O)CNCC)cc1C2=O,T/C,[1],100 % of control
same,T/C,[2],110 % of control
same,T/C,"dose: 100.0 mg/kg/injection, schedule: Q04DX002 (ip), vehicle: saline with Tween-80",102 % of control
same,T/C,"dose: 200.0 mg/kg/injection, schedule: Q04DX002 (ip), vehicle: saline with Tween-80",108 % of control and 93 % of control
Cc1cc2nc3[nH]c(=O)c4ccccc4c(=O)n3c2cc1C,T/C,[3],98 % of control
same,T/C,[4],92 % of control
CC(C)C1CC(N(C)C)=CC(=S)N1 (stereo not given),T/C,[5],106 % of control
same,T/C,[6],110 % of control
same,T/C,"dose: 100.0 mg/kg/injection, schedule: Q01DX005 (ip), vehicle: saline",93 % of control
same,T/C,"dose: 200.0 mg/kg/injection, schedule: Q01DX005 (ip), vehicle: saline",102 % of control
C1NNCC12CNNC2,T/C,"dose: 100.0 mg/kg/injection, schedule: Q04DX003 (ip), vehicle: suspension in saline",94 % of control
same,T/C,"dose: 200.0 mg/kg/injection, schedule: Q04DX003 (ip), vehicle: suspension in saline",94 % of control
same,T/C,"dose: 400.0 mg/kg/injection, schedule: Q04DX003 (ip), vehicle: suspension in saline",90 % of control
CCN1/C(=C/C=C2\CCC(/C=C/c3sc4ccc(Cl)cc4[n+]3CC)=C2N(c2ccccc2)c2ccccc2)Sc2ccc(Cl)cc21,T/C,"dose: 6.25 mg/kg/injection, schedule: Q01DX009 (ip), vehicle: Klucel (hydroxypropylcellulose) (HPC)",156 % of control
same,T/C,[7],107 % of control
CCOC(=O)C1C(c2cc(OC)c(OC)c(OC)c2)c2cc3c(cc2OC1(C)N1CCCC1)OCO3 (stereo not given),T/C,[8],97 % of control
same,T/C,[9],96 % of control
same,T/C,[10],96 % of control
Nc1cc(NC=O)ncn1,T/C,[11],102 % of control
same,T/C,[12],105 % of control
same,T/C,[13],102 % of control
O=C(NC(=O)c1c(F)cccc1F)Nc1cccc(Oc2ncc(Cl)cn2)c1,T/C,"dose: 15.0 mg/kg/injection, schedule: Q01DX005 (ip), vehicle: saline with Tween-80",111 % of control
same,T/C,"dose: 30.0 mg/kg/injection, schedule: Q01DX005 (ip), vehicle: saline with Tween-80",96 % of control
same,T/C,[14],94 % of control and 95 % of control
N#CC(C(=O)CCCC(=O)Nc1cccc([N+](=O)[O-])c1)c1cccc2ccccc12 (stereo not given),T/C,[14],104 % of control
same,T/C,"dose: 120.0 mg/kg/injection, schedule: Q01DX005 (ip), vehicle: saline with Tween-80",108 % of control
same,T/C,"dose: 240.0 mg/kg/injection, schedule: Q01DX005 (ip), vehicle: saline with Tween-80",101 % of control
NC(=O)c1cc([N+](=O)[O-])cnc1Sc1ncccn1,T/C,[15],110 % of control
same,T/C,[16],118 % of control
same,T/C,[7],111 % of control and 114 % of control
COc1ccccc1NC(=S)N/N=C\c1nc2ccccc2c2ccccc12,T/C,"dose: 75.0 mg/kg/injection, schedule: Q04DX002 (ip), vehicle: Klucel (hydroxypropylcellulose) (HPC)",99 % of control
same,T/C,"dose: 150.0 mg/kg/injection, schedule: Q04DX002 (ip), vehicle: Klucel (hydroxypropylcellulose) (HPC)",96 % of control
same,T/C,"dose: 300.0 mg/kg/injection, schedule: Q04DX002 (ip), vehicle: Klucel (hydroxypropylcellulose) (HPC)",96 % of control
Nc1nc(I)c2ncn(C3OC(CO)C(O)C3O)c2n1 (stereo not given),T/C,"dose: 50.0 mg/kg/injection, schedule: Q01DX005 (ip), vehicle: saline with Tween-80",98 % of control
same,T/C,"dose: 100.0 mg/kg/injection, schedule: Q01DX005 (ip), vehicle: saline with Tween-80",92 % of control
same,T/C,"dose: 200.0 mg/kg/injection, schedule: Q01DX005 (ip), vehicle: saline with Tween-80",96 % of control
O=C1c2cc(Cl)ccc2-c2c(Cl)cc(Cl)cc21,T/C,"dose: 12.5 mg/kg/injection, schedule: Q01DX009 (ip), vehicle: saline with Tween-80",87 % of control
same,T/C,[11],100 % of control
same,T/C,[12],100 % of control
C/C(Cl)=C\c1nc2ccccc2nc1Cl,T/C,[3],100 % of control
same,T/C,[4],92 % of control
same,T/C,[17],92 % of control
COC(=O)C(C(=O)OC)=C(NS(=O)(=O)c1ccc(C)cc1)SC,T/C,"dose: 12.5 mg/kg/injection, schedule: Q04DX002 (ip), vehicle: saline with Tween-80",100 % of control
same,T/C,[1],100 % of control
same,T/C,[2],109 % of control
N#Cc1c2ccccc2cc[n+]1Cc1ccc2c(c1)OCO2,T/C,"dose: 3.12 mg/kg/injection, schedule: Q04DX002 (ip), vehicle: Klucel (hydroxypropylcellulose) (HPC)",105 % of control
same,T/C,"dose: 6.25 mg/kg/injection, schedule: Q04DX002 (ip), vehicle: Klucel (hydroxypropylcellulose) (HPC)",104 % of control
same,T/C,"dose: 12.5 mg/kg/injection, schedule: Q04DX002 (ip), vehicle: Klucel (hydroxypropylcellulose) (HPC)",100 % of control and 106 % of control
C=CCc1ccc(OC)c(O)c1C(=O)OCC,T/C,"dose: 50.0 mg/kg/injection, schedule: Q01DX009 (ip), vehicle: saline",103 % of control
same,T/C,"dose: 100.0 mg/kg/injection, schedule: Q01DX009 (ip), vehicle: saline",103 % of control
same,T/C,"dose: 200.0 mg/kg/injection, schedule: Q01DX009 (ip), vehicle: saline",95 % of control
CC1=C(C)SC(=S)NN1,T/C,"dose: 3.12 mg/kg/injection, schedule: Q01DX009 (ip), vehicle: saline",96 % of control
same,T/C,"dose: 6.25 mg/kg/injection, schedule: Q01DX009 (ip), vehicle: saline",100 % of control
same,T/C,"dose: 12.5 mg/kg/injection, schedule: Q01DX009 (ip), vehicle: saline",100 % of control
CC(Nc1ccc(S(=O)(=O)Nc2ncccn2)cc1)c1ccc2cccnc2c1O (stereo not given),T/C,"dose: 100.0 mg/kg/injection, schedule: Q01DX001 (ip), vehicle: saline with Tween-80",94 % of control
same,T/C,"dose: 200.0 mg/kg/injection, schedule: Q01DX001 (ip), vehicle: saline with Tween-80",98 % of control
c1ccc(C2=NCCN=C2c2ccccc2)cc1,T/C,[3],94 % of control
same,T/C,[4],99 % of control
same,T/C,[17],93 % of control
O=C(O)c1ccc2c(c1Cl)C(=O)c1ccccc1C2=O,T/C,"dose: 25.0 mg/kg/injection, schedule: Q04DX003 (ip), vehicle: Klucel (hydroxypropylcellulose) (HPC)",101 % of control
same,T/C,"dose: 50.0 mg/kg/injection, schedule: Q04DX003 (ip), vehicle: Klucel (hydroxypropylcellulose) (HPC)",101 % of control
same,T/C,"dose: 100.0 mg/kg/injection, schedule: Q04DX003 (ip), vehicle: Klucel (hydroxypropylcellulose) (HPC)",100 % of control
Cc1ccc2c(=O)[nH]cnc2c1,T/C,[15],100 % of control
same,T/C,[16],98 % of control and 100 % of control
same,T/C,[7],99 % of control and 103 % of control
same,T/C,"dose: 100.0 mg/kg/injection, schedule: Q01DX009 (ip), vehicle: Klucel (hydroxypropylcellulose) (HPC)",101 % of control and 110 % of control and 97 % of control
same,T/C,"dose: 200.0 mg/kg/injection, schedule: Q01DX009 (ip), vehicle: Klucel (hydroxypropylcellulose) (HPC)",113 % of control
C(=NC12CC3CC(CC(C3)C1)C2)C12CC3CC(CC(C3)C1)C2,T/C,[12],99 % of control
same,T/C,[13],102 % of control
same,T/C,"dose: 200.0 mg/kg/injection, schedule: Q01DX009 (ip), vehicle: saline with Tween-80",96 % of control
Cc1ncc(C(=O)O)n1Cc1ccccc1,T/C,[8],94 % of control
same,T/C,[9],93 % of control
same,T/C,[10],93 % of control
Cn1c(N)c(C(=O)/C=C/c2ccccc2)c(=O)[nH]c1=O,T/C,[5],95 % of control
same,T/C,[6],88 % of control
same,T/C,"dose: 200.0 mg/kg/injection, schedule: Q01DX005 (ip), vehicle: Klucel (hydroxypropylcellulose) (HPC)",88 % of control
Cc1ccc(S(=O)(=O)N(CCCc2c(C)nc(N)[nH]c2=O)Cc2ccc([N+](=O)[O-])cc2)cc1,T/C,[8],88 % of control
same,T/C,[9],86 % of control
same,T/C,[10],87 % of control
COC(=O)C1(C)CCCC2(C)c3cc(OC)ccc3C3(CC12)OCCO3 (stereo not given),T/C,"dose: 5.0 mg/kg/injection, schedule: Q01DX009 (ip), vehicle: saline",98 % of control
same,T/C,"dose: 10.0 mg/kg/injection, schedule: Q01DX009 (ip), vehicle: saline",95 % of control
same,T/C,"dose: 20.0 mg/kg/injection, schedule: Q01DX009 (ip), vehicle: saline",89 % of control
